Laboratory results reported in US20210070748A1, “INHIBITORS OF BRUTONS TYROSINE KINASE” (Pharmacyclics LLC, priority 2015, published 2021).

Assays:
Type in all cases: biochemical
BTK-WT = molecular target: T1, BTK-WT (Homo sapiens, UniProt Q06187); experiment: Btk in vitro inhibitory activity (one of Method A TR-FRET, Method B electrophoretic mobility shift, Method C radiometric filter binding); details: D-compounds panel data; read-out: IC50 BTK-WT
T1 construct: purified from insect cells as a full-length construct containing an N-terminal 6X-His tag; His6 (N); made in house; host or cells: insect cells (baculovirus Sf21 in Method B)
T1 sequence (Q06187 whole entry): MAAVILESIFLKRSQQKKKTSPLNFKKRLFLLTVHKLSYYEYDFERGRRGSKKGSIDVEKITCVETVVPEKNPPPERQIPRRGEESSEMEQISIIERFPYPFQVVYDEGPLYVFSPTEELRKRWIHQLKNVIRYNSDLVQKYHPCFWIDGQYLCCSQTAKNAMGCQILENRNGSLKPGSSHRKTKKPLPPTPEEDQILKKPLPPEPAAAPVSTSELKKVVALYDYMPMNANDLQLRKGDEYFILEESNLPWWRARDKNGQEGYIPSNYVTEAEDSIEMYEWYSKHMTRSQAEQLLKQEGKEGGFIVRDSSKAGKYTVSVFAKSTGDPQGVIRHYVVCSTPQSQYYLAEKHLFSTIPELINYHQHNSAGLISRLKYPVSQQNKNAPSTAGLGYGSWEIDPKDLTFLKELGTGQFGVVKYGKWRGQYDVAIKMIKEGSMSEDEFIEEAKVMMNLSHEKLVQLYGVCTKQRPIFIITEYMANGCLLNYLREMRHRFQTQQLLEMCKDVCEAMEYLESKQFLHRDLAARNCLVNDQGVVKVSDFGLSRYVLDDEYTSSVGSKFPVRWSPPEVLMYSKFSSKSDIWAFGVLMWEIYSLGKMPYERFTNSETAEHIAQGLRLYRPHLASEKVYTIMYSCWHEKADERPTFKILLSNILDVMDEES

LCK = LCK (Homo sapiens, UniProt P06239); experiment: Inhibition of a panel of kinases, in vitro HotSpot kinase assay: LCK; details: D-compounds panel data; 1 μM ATP; read-out: IC50 LCK
Chain of LCK (P06239 whole entry): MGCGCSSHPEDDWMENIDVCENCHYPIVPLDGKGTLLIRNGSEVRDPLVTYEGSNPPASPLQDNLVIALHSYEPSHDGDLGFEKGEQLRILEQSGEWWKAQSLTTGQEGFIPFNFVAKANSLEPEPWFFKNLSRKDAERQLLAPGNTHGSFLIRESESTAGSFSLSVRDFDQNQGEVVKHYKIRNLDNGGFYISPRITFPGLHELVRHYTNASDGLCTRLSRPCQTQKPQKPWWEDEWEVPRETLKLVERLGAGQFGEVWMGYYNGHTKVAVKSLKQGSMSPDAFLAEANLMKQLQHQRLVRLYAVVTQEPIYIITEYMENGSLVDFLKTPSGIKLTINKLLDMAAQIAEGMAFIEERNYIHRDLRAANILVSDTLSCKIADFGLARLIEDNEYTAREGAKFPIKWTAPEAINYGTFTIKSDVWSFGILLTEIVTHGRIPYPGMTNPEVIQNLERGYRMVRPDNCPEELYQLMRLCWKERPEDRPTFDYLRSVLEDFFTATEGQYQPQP

ITK = molecular target: T2, ITK (Homo sapiens, UniProt Q08881); experiment: Inhibition of a panel of kinases, in vitro HotSpot kinase assay: ITK; details: D-compounds panel data; 1 μM ATP
T2 sequence (Q08881 1-620): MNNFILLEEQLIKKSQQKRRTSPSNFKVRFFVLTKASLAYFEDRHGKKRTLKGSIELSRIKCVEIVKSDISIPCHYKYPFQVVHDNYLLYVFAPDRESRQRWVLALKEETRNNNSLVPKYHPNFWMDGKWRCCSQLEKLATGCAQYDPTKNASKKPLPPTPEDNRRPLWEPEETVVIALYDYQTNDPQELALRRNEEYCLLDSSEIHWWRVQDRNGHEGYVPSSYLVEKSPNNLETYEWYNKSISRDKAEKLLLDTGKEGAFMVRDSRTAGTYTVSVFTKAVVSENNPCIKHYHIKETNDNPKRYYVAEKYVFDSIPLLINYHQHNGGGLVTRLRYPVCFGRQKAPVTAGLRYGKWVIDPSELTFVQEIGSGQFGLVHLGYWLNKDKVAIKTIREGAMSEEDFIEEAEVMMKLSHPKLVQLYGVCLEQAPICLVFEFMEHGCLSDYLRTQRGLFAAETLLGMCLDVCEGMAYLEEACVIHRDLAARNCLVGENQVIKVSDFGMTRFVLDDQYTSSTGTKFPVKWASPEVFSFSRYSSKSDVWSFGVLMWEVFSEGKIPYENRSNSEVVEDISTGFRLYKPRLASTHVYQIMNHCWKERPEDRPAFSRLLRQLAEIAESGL
Method: (§1) The degree of inhibition of a panel of kinases is determined using the in vitro HotSpot kinase assay (purified enzymes, ^33P-ATP, an appropriate substrate and 1 μM ATP).

EGFR = EGFR (Homo sapiens, UniProt P00533); experiment: Inhibition of a panel of kinases, in vitro HotSpot kinase assay: EGFR; details: D-compounds panel data; 1 μM ATP
Chain of EGFR (P00533 25-1210): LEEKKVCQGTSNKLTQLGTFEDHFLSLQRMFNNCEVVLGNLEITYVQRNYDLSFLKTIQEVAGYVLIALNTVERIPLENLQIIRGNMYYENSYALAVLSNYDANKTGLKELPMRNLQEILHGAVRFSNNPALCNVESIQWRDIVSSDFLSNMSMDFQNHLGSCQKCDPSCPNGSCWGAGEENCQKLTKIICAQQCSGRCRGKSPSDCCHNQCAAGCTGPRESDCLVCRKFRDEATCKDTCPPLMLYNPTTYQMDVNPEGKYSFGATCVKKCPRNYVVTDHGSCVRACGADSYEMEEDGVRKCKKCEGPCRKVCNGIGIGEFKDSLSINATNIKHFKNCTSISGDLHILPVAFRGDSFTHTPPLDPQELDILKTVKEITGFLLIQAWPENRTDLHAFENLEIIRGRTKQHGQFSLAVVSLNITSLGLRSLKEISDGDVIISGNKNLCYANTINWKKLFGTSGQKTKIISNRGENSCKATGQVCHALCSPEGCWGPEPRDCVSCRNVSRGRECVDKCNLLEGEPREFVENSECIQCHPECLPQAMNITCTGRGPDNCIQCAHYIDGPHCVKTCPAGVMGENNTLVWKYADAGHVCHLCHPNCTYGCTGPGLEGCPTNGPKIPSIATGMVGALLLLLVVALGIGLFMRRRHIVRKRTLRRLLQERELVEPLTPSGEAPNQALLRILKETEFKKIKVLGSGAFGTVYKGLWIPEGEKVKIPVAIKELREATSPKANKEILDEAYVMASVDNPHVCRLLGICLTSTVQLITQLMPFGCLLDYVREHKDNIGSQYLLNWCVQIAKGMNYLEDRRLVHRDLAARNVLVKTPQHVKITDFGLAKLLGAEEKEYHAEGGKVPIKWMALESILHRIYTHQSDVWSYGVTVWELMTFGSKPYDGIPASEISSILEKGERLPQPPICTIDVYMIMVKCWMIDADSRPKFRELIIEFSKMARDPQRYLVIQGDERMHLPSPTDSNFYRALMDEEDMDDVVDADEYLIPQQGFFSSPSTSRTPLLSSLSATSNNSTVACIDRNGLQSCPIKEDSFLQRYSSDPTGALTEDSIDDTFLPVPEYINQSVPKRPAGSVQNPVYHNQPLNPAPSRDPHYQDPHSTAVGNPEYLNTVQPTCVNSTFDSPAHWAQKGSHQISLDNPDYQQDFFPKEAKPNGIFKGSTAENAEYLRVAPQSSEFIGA
Method: as §1

TEC = molecular target: T3, TEC (Homo sapiens, UniProt P42680); experiment: Inhibition of a panel of kinases, in vitro HotSpot kinase assay: TEC; details: D-compounds panel data; 1 μM ATP
T3 sequence (P42680 1-631): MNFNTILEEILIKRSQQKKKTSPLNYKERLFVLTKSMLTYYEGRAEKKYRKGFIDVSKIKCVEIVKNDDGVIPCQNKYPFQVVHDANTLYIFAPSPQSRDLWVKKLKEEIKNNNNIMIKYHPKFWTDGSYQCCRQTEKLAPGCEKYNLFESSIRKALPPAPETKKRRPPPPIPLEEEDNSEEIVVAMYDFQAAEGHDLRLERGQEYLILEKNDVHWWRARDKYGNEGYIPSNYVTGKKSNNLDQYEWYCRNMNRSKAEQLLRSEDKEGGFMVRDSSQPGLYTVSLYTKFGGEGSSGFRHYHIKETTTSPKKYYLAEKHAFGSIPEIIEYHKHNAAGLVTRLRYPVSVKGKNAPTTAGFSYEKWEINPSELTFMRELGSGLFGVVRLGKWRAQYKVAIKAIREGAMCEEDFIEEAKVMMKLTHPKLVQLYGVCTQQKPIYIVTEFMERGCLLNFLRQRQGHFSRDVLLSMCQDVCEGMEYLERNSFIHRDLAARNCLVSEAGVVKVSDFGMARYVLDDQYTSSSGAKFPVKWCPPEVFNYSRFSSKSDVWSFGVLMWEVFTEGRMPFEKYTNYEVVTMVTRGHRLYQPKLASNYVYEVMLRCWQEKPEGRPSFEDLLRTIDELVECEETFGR
Method: as §1

Row | Compound | IC50 (BTK-WT) [nM] | IC50 (LCK) [nM] | IC50 (ITK) [nM] | IC50 (EGFR) [nM] | IC50 (TEC) [nM]
1 | Cn1cc(Nc2nc(N3CCC[C@@H](NC(=O)c4ccc(C5CC5)cc4)C3)cnc2C(N)=O)cn1 [Example D-191, 5-[(3R)-3-(4-cyclopropylbenzamido)piperidin-1-yl]-3-[(1-methyl-1H-pyrazol-4-yl)amino]pyrazine-2-carboxamide] | 10 to 100 | 100 to 1000 | 1000 to 10000 | > 10000 | 100 to 1000
2 | CC1(c2ccc(Nc3nc(N4CCC[C@@H](n5ccc6cc(C7CC7)ccc6c5=O)C4)cnc3C(N)=O)cc2)CCN(C2CCCC2)CC1 [Example D-177, 3-{[4-(1-cyclopentyl-4-methylpiperidin-4-yl)phenyl]amino}-5-[(3R)-3-(6-cyclopropyl-1-oxo-1,2-dihydroisoquinolin-2-yl)piperidin-1-yl]pyrazine-2-carboxamide] | ≤ 10 | 10 to 100 | 10 to 100 | 100 to 1000 | ≤ 10
3 | CN1CCN([C@@H]2CCCN(c3cnc(C(N)=O)c(Nc4cnn(C)c4)n3)C2)C1=O [Example D-209, 3-[(1-methyl-1H-pyrazol-4-yl)amino]-5-[(3R)-3-(3-methyl-2-oxoimidazolidin-1-yl)piperidin-1-yl]pyrazine-2-carboxamide] | 10 to 100 | 100 to 1000 | 1000 to 10000 | > 10000 | 10 to 100
4 | C[C@@H]1[C@H](NC(=O)c2ccc(C3CC3)cc2)CCCN1c1cnc(C(N)=O)c(Nc2cnn(CCN(C)C)c2)n1 [Example D-187, 5-[(2R,3R)-3-(4-cyclopropylbenzamido)-2-methylpiperidin-1-yl]-3-({1-[2-(dimethylamino)ethyl]-1H-pyrazol-4-yl}amino)pyrazine-2-carboxamide] | 10 to 100 | 100 to 1000 | 1000 to 10000 | 1000 to 10000 | 100 to 1000
5 | Cc1cc(Nc2nc(N3CCC[C@H](c4ncc(-c5ccccc5)[nH]4)C3)cnc2C(N)=O)sn1 [Example D-172, 3-[(3-methyl-1,2-thiazol-5-yl)amino]-5-[(3S)-3-(5-phenyl-1H-imidazol-2-yl)piperidin-1-yl]pyrazine-2-carboxamide] | 10 to 100 | 100 to 1000 | > 10000 | 10 to 100 | 100 to 1000
6 | Cn1cc(Nc2nc(N3C4CCC(NC(=O)c5ccc(C6CC6)cc5)C3CC4)cnc2C(N)=O)cn1 (single isomer, unassigned) [Example D-199, 5-[2-(4-cyclopropylbenzamido)-8-azabicyclo[3.2.1]octan-8-yl]-3-[(1-methyl-1H-pyrazol-4-yl)amino]pyrazine-2-carboxamide] | 1000 to 10000 | > 10000 | > 10000 | > 10000 | 1000 to 10000
7 | CN1CCN(c2ccc(Nc3cc(N4CCC[C@@H](n5ccc6cc(C7CC7)ccc6c5=O)C4)cnc3C(N)=O)cc2)CC1 [Example D-178, 5-[(3R)-3-(6-cyclopropyl-1-oxo-1,2-dihydroisoquinolin-2-yl)piperidin-1-yl]-3-{[4-(4-methylpiperazin-1-yl)phenyl]amino}pyridine-2-carboxamide] | 10 to 100 | 1000 to 10000 | 1000 to 10000 | > 10000 | 1000 to 10000
8 | Cc1cc(Nc2cc(N3CCC[C@@H](NC(=O)N(C)C)[C@H]3C)cnc2C(N)=O)sn1 [Example D-175, 5-[(2R,3R)-3-[(dimethylcarbamoyl)amino]-2-methylpiperidin-1-yl]-3-[(3-methyl-1,2-thiazol-5-yl)amino]pyridine-2-carboxamide] | 10 to 100 | 1000 to 10000 | 1000 to 10000 | 1000 to 10000 | 1000 to 10000

Further lines, results first:

Row | IC50 (BTK-WT) [nM] | IC50 (LCK) [nM] | IC50 (ITK) [nM] | IC50 (EGFR) [nM] | IC50 (TEC) [nM] | Compound
9 | ≤ 10 | 10 to 100 | 100 to 1000 | > 10000 | 10 to 100 | C[C@@H]1[C@H](NC(=O)c2ccc(C3CC3)cc2F)CCCN1c1cnc(C(N)=O)c(Nc2cc(CN3CCCCC3)ns2)n1 [Example D-176, 5-[(2R,3R)-3-(4-cyclopropyl-2-fluorobenzamido)-2-methylpiperidin-1-yl]-3-{[3-(piperidin-1-ylmethyl)-1,2-thiazol-5-yl]amino}pyrazine-2-carboxamide]
10 | ≤ 10 | 100 to 1000 | 100 to 1000 | 1000 to 10000 | 10 to 100 | C[C@@H]1[C@H](NC(=O)c2ccc(C3CC3)nc2)CCCN1c1cnc(C(N)=O)c(Nc2cnn(C)c2)n1 [Example D-18, 5-[(2R,3R)-3-(6-cyclopropylpyridine-3-amido)-2-methylpiperidin-1-yl]-3-[(1-methyl-1H-pyrazol-4-yl)amino]pyrazine-2-carboxamide]
11 | ≤ 10 | 100 to 1000 | 100 to 1000 | 1000 to 10000 | ≤ 10 | C[C@@H]1[C@H](NC(=O)c2ccc3c(c2)OC(F)(F)O3)CCCN1c1cnc(C(N)=O)c(Nc2cnn(C)c2)n1 [Example D-216, 5-[(2R,3R)-3-(2,2-difluoro-2H-1,3-benzodioxole-5-amido)-2-methylpiperidin-1-yl]-3-[(1-methyl-1H-pyrazol-4-yl)amino]pyrazine-2-carboxamide]
12 | ≤ 10 | 1000 to 10000 | > 10000 | > 10000 | 10 to 100 | Cn1cc(Nc2nc(N3CCC[C@@H](n4ccc5cc(C6CC6)ccc5c4=O)C3)cnc2C(N)=O)cn1 [Example D-184, 5-[(3R)-3-(6-cyclopropyl-1-oxo-1,2-dihydroisoquinolin-2-yl)piperidin-1-yl]-3-[(1-methyl-1H-pyrazol-4-yl)amino]pyrazine-2-carboxamide]
13 | ≤ 10 | 100 to 1000 | 100 to 1000 | 1000 to 10000 | ≤ 10 | Cc1ncc(Nc2nc(N3CCC[C@@H](NC(=O)c4ccc(C5CC5)cc4)[C@H]3C)cnc2C(N)=O)s1 [Example D-210, 5-[(2R,3R)-3-(4-cyclopropylbenzamido)-2-methylpiperidin-1-yl]-3-[(2-methyl-1,3-thiazol-5-yl)amino]pyrazine-2-carboxamide]
14 | ≤ 10 | 10 to 100 | 100 to 1000 | 100 to 1000 | 100 to 1000 | C[C@@H]1[C@H](NC(=O)N(C)C)CCCN1c1cnc(C(N)=O)c(Nc2ccc(N3CCN(C4CCCC4)CC3)cc2)n1 [Example D-182, 3-{[4-(4-cyclopentylpiperazin-1-yl)phenyl]amino}-5-[(2R,3R)-3-[(dimethylcarbamoyl)amino]-2-methylpiperidin-1-yl]pyrazine-2-carboxamide]
15 | ≤ 10 | 10 to 100 | 10 to 100 | 100 to 1000 | ≤ 10 | C[C@@H]1[C@H](NC(=O)c2ccc3c(cnn3C)c2)CCCN1c1cnc(C(N)=O)c(Nc2ccc(N3CCN(C)CC3)cc2)n1 [Example D-234, N-[(2R,3R)-1-(5-carbamoyl-6-{[4-(4-methylpiperazin-1-yl)phenyl]amino}pyrazin-2-yl)-2-methylpiperidin-3-yl]-1-methyl-1H-indazole-5-carboxamide]
16 | ≤ 10 | 10 to 100 | 100 to 1000 | 100 to 1000 | ≤ 10 | Cc1nc2cc(C(=O)N[C@@H]3CCCN(c4cnc(C(N)=O)c(Nc5cnn(C)c5)n4)[C@@H]3C)ccc2o1 [Example D-238, N-[(2R,3R)-1-{5-carbamoyl-6-[(1-methyl-1H-pyrazol-4-yl)amino]pyrazin-2-yl}-2-methylpiperidin-3-yl]-2-methyl-1,3-benzoxazole-5-carboxamide]
17 | ≤ 10 | 100 to 1000 | 100 to 1000 | 1000 to 10000 | 10 to 100 | CC(C)c1ccc(C(=O)N[C@@H]2CCCN(c3cnc(C(N)=O)c(Nc4cnn(C)c4)n3)[C@@H]2C)cc1 [Example D-197, 3-[(1-methyl-1H-pyrazol-4-yl)amino]-5-[(2R,3R)-2-methyl-3-[4-(propan-2-yl)benzamido]piperidin-1-yl]pyrazine-2-carboxamide]
